Laboratory results published in US5863913A, “Aromatic compound and pharmaceutical composition” (Kureha Chemical Industry Co., Ltd., priority 1996, dated 1999).

Legend:
[1] = Oral absorption (amount of compound in rat serum by HPLC, area under curve); format: in vivo, Sprague-Dawley female rats; details: single dosage 160 mg/kg in water, 0.5 to 24 hours, average of 3 rats
Procedure: Twelve-week-old Sprague-Dawley female rats (3 rats per group) were bred for acclimation for a week. Then, the compounds of the present invention and a reference substrate were dissolved in water, and orally administered to the rats in a single dosage (160 mg/kg). After 0.5 hour, 1 hour, 2 hours, 4 hours, 6 hours, 8 hours, and 24 hours, the amounts of each compound (ng) per 1 ml of serum were measured using HPLC. Curves were obtained from the relation between an elapsed time after administration and the amount of the compound in serum at each elapsed time, respectively, and an average of the areas under the curves was calculated.
As a reference substance, Compound No. 184 disclosed in Japanese Unexamined Patent Publication (Kokai) No. 8-48651 was used. Compound No. 184 corresponds to the compound of the formula (I) wherein R^1 =nBu, A=N, Z=C, R^2 =CO, R^3 =NC4 H8 O, R^4 =H, R^5 =Me, and R^6 =Me.

ICR female mice = assay: Acute toxicity, single oral dose in mice; details: mouse, in vivo
Procedure: The aromatic compounds of the formula (I) according to the present invention were orally administered to mice at the dose of 500 mg/kg, but no fatalities were observed over a period of one week.
Five-week-old ICR female mice (5 mice per group) were bred for acclimation for a week. Then, the compounds of the present invention were dissolved in water, and orally administered to the mice in a single dosage (500 mg/kg).

[2] = biological target: T1, angiotensin II receptor subtype 1 (AT1) (Oryctolagus cuniculus, UniProt P34976); assay: Binding to receptors: angiotensin II receptor subtype 1 (AT1); design: species or system rabbits (adrenal glands); details: rabbit adrenal glands, tracer 3H-angiotensin II
T1 construct: receptor : from adrenal glands in rabbits; from tissue; host or cells: rabbit adrenal glands
T1 sequence (P34976 1-359): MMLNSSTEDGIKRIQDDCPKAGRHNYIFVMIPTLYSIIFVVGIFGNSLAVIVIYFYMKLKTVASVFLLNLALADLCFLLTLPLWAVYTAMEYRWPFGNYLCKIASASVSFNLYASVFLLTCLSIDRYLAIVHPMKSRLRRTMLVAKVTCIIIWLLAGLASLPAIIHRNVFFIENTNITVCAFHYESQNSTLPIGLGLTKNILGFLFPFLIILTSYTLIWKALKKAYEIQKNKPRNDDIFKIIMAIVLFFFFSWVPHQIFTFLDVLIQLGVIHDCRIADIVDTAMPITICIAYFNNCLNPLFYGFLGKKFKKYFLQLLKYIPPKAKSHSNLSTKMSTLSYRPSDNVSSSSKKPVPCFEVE
Procedure: In this Example, the affinity to the angiotensin II receptor subtype 1 or subtype 2 was evaluated by a binding assay in accordance with the method described in Biochem. Pharmacol., 33, 4057-4062 (1984).
Specifically, the measurement of the total binding in the presence of each drug was performed as follows:
A mixture (final volume=0.25 ml) of a drug in a given concentration (the drug was dissolved in DMSO, and diluted to a double volume with a buffer attached to a drug discovery system to prepare a sample for the assay; 0.025 ml), a tracer (0.025 ml), and receptors (0.2 ml) was incubated [in the case of the angiotensin II receptor subtype 1 (AT1), at room temperature for 3 hours, and in the case of the subtype 2 (AT2), at 37° C. for 1 hour]. Then, the reaction mixture was filtered with suction (GF/C filter was used in AT1, and GF/B filter was used in AT2). The filter papers after filtration with suction (the tracer bound to the receptors) were counted by a γ-well counter (ARC-500, Aloka). The non-specific bindings were measured by repeating the above method, except that a large excess amount of a displacer was added. The specific binding of the drug in the given concentration was calculated by subtracting the non-specific binding from the total binding, respectively.
receptor : from adrenal glands in rabbits
tracer : ^3 Hangiotensin II

[3] = tested on: kidney disease model rats; assay: Action to lower blood pressure in kidney disease model rats (tail cuff); format: in vivo, Sprague-Dawley female rats; details: systolic, average of 8 rats, 20 mg/kg with drinking water, two days after administration; control 210
Procedure: (§1) The compounds of the present invention and the reference substance were administered with drinking water to kidney disease model rats, and the action of lowering the blood pressure was observed. The kidney disease model rats were prepared by a ligature of branches of renal artery in accordance with a conventional method. Namely, the left hilum renalis of Sprague-Dawley female rats was exposed under anesthesia, and one of four secondary branches of the renal artery was left unligated, while the remaining three branches were ligated, respectively. After a week, the hilum renalis (artery, vein, and ureter) of the right kidney were further ligated to thereby prepare rats whose renal function was lowered to approximately 1/8 of the normal function. Each group consisted of eight rats. The drugs to be tested (20 mg/kg) were administered to each administering group, and only water was administered to a control group. Two days after the administration, the systolic blood pressure was measured by the tail cuff method using a blood pressure measuring apparatus (UR5000; Ueda).

[4] = tested on: kidney disease model rats; assay: Renal function indicatory value in kidney disease model rats; format: in vivo, Sprague-Dawley female rats; details: 20 mg/kg/day with drinking water, six weeks
Procedure: as §1, with “The” for “The compounds of the present invention and the reference substance were administered with drinking water to kidney disease model rats, and the action of lowering the blood pressure was observed. The”
The rats in each group were allowed to freely take up food. […] To the rats in the control group, only water was administered every day. After six weeks, 0.2 ml of blood was collected from the carotid artery of the rats under anesthesia, and centrifuged to obtain serum. Using 25 μl of the serum, the serum creatinine (Scr) was measured by a creatinine analytical instrument (Beckman). Using 10 μl of the serum, the blood urea nitrogen (BUN) was measured by a BUN analytical instrument (Beckman). The creatinine clearance was evaluated as follows:
After the serum creatinine measurement, rats were placed in urinary metabolic cages for 24 hours to collect urine. A urinary creatine concentration (Ucr) was measured by a creatinine analytical instrument, and a total volume of urination (Uvol) was also measured. The creatinine clearance (CCr) was calculated by the following formula: [formula]

[5] = tested on: kidney disease model rats; assay: Survival time of kidney diseased animals; format: in vivo, Sprague-Dawley female rats; details: 20 mg/kg/day with drinking water, observation period eight weeks (upper limit); control 5.0
Procedure: as §1
The kidney disease model rats were prepared as in Example 54. Twenty-two groups (8 rats per group) were prepared in a manner such that there was no major difference between the groups in the serum creatinine value and the blood urea nitrogen value indicating renal function. The rats in each group were allowed to freely take up food. […] To the rats in the control group, only water was administered every day. If kidney diseases are aggravated, the rat will die of uremia. Thus, the survival time was observed as a comprehensive indication of the improvement of the effect on the kidney diseases. The observation period was eight weeks. Thus if all rats survived, the average survival time is eight weeks, and is an upper limit.

Compound | AUC at 24 h [1] [ng·h/mL] | Number of deaths/number of survivals (ICR female mice) | inhibition at 100 µM [2] [%] | Blood Pressure [3] [mmHg] | Creatinine clearance ([4]; 24 hours urine, control 0.22) [mL/min] | Creatinine ([4]; serum, control 2.0) [mg/dL] | Blood urea nitrogen ([4]; serum, control 100) [mg/dL] | Average survival time [5] [weeks]
CCCCC(=O)N(Cc1ccc(C(=O)O)cc1)c1cc(C(=O)N2CCOCC2)ccc1N(C)C [reference substance, 3-N-[[(4-carboxyphenyl)methyl]valeramido]-4-dimethylaminobenzoic acid morpholide, reference compound] | 622 |  |  |  |  |  |  | 
CCCCC(=O)N(Cc1ccc(C(=O)O)cc1)c1cc(C(=O)N2CCN(CCC)CC2)ccc1N(C)C [Compound No. 11, 4-dimethylamino-3-N-[[(4-carboxyphenyl)methyl]valeramido]benzoic acid 4'-n-propylpiperazide] | 76000 | 0/5 | 0 | 204 | 0.42 | 1.2 | 62 | 7.3
